Results taken from ChEMBL document CHEMBL4483862, “Open-source discovery of chemical leads for next-generation chemoprotective antimalarials” (2018).

Tested on: Plasmodium berghei
Experiment: Luciferase/luciferin-expressing antifolate-resistant parasites were used to infect a culture of HepG2 cells that were pre-incubated with compounds. Infected hepatocytes emit light due to the luciferase reaction. Assay results are presented as the percent inhibition of light emission compared to control. […]
Type: functional
Settings: sporozoite; for IC90: read-out: LUCIFERASE INFECTION ASSAY - IC90
[1] = read-out: LUCIFERASE INFECTION ASSAY - IC50

Structure (SMILES) | IC90 [µM] | IC50 [1] [µM] | also measured
CC(OC(=O)c1ccccc1Nc1ccccc1)C(=O)NC1CC1 (centres undefined) | > 10 |  | IC50 (PBLUC_HILL_SLOPE 8.51, PBLUC_R_SQUARED 0.0555, read-out: LUCIFERASE INFECTION ASSAY - IC50): 8.65 µM
CCN1C(=O)N(C2Cc3ccccc3C2)C(=O)C12CCN(Cc1c[nH]nc1-c1ccc(F)cc1)CC2 | > 6.77 | 4.54 | 
Cc1nnc(SCCOc2ccc(C(C)(C)C)cc2)n1C1CCCCC1 | > 10 |  | IC50 (HEPG2TOX_HILL_SLOPE 0.16, HEPG2TOX_R_SQUARED 0.182, read-out: LUCIFERASE INFECTION ASSAY - IC50): > 10 µM
CC(C)(C)C1CCC2(CC1)NC(=O)N(CC(=O)OCC(=O)N1CCN(Cc3ccccc3)C1=O)C2=O (centres undefined) | > 10 | > 10 | 
COc1ccc(C(=O)N2CCN(c3ncnc4cc(Cl)ccc34)CC2)cc1 | > 10 |  | IC50 (HEPG2TOX_HILL_SLOPE 0.344, HEPG2TOX_R_SQUARED 0.575, PBLUC_HILL_SLOPE 18.9, PBLUC_R_SQUARED 0.0549, read-out: LUCIFERASE INFECTION ASSAY - IC50): 9.92 µM
CCc1cc2c(=O)n(Cc3ccco3)c(SCC(=O)N(C)C3CCS(=O)(=O)C3)nc2s1 (centres undefined) | > 10 | > 10 | 
COc1ccccc1-c1nc2ccc(NC(=O)Nc3ccc(OC(F)(F)F)cc3)cn2n1 | > 10 |  | IC50 (PBLUC_HILL_SLOPE 3.5, PBLUC_R_SQUARED 0.389, read-out: LUCIFERASE INFECTION ASSAY - IC50): 7.37 µM
Cc1cc(C)n(-c2nc(-c3ccccc3)cc(N3CCCC3)n2)n1 | 8.47 |  | IC50 (PBLUC_HILL_SLOPE 3.13, PBLUC_R_SQUARED 0.498, read-out: LUCIFERASE INFECTION ASSAY - IC50): 4.2 µM
Cc1ccccc1Sc1ccc(NC(=O)c2ccc(F)cc2)cc1C#N | > 9.11 | > 9.11 | 
O=C(/C=C/c1ccccc1OC(F)F)N(Cc1ccccc1)c1nnc(SC(F)F)s1 | 3.6 |  | IC50 (HEPG2TOX_HILL_SLOPE 8.23, HEPG2TOX_R_SQUARED 0.589, PBLUC_HILL_SLOPE 26.6, PBLUC_R_SQUARED 0.272, read-out: LUCIFERASE INFECTION ASSAY - IC50): 3.31 µM
Cc1cc(O)c(C(=O)/C=C/c2cccc(C(F)(F)F)c2)c(=O)o1 | > 10 |  | IC50 (FFLUC_HILL_SLOPE 56.9, FFLUC_R_SQUARED 0.7, read-out: LUCIFERASE INFECTION ASSAY - IC50): > 10 µM
O=C(C1COc2ccccc2C1)N(Cc1ccccc1)c1ccccn1 (centres undefined) | > 10 |  | IC50 (HEPG2TOX_HILL_SLOPE 0.0154, HEPG2TOX_R_SQUARED 0.0147, read-out: LUCIFERASE INFECTION ASSAY - IC50): > 10 µM
CC(C(=O)Nc1cccc(S(=O)(=O)N2CCOCC2)c1)N(C)Cc1cccc(Cl)c1Cl (centres undefined) | > 10 | > 10 | 
COc1ccc(-c2csc3ncnc(NCC4(N5CCOCC5)CCCCC4)c23)cc1 | 9.48 |  | IC50 (PBLUC_HILL_SLOPE 4.26, PBLUC_R_SQUARED 0.161, read-out: LUCIFERASE INFECTION ASSAY - IC50): 5.66 µM
N#Cc1c(N)nc2c(c1N)C(C(C#N)C#N)c1cc(Br)ccc1O2 (centres undefined) | > 8.66 |  | IC50 (FFLUC_HILL_SLOPE 1.21, FFLUC_R_SQUARED 0.243, read-out: LUCIFERASE INFECTION ASSAY - IC50): > 8.66 µM
COc1ccc(CCn2nc(C(=O)N(C)C)c3c2CCN(CCCc2ccccc2)C3)cc1 | > 7.39 | > 7.39 | 
Cc1ccc(NC(=O)c2cc(-c3cc(Cl)ccc3C)[nH]n2)cc1NS(C)(=O)=O | 7.29 |  | IC50 (PBLUC_HILL_SLOPE 10.6, PBLUC_R_SQUARED 0.45, read-out: LUCIFERASE INFECTION ASSAY - IC50): 5.92 µM
O=C(Nc1nc2ccccc2n1C1CCCCC1)c1ccoc1 | 4.66 |  | IC50 (HEPG2TOX_HILL_SLOPE 1.84, HEPG2TOX_R_SQUARED 0.834, PBLUC_HILL_SLOPE 10.1, PBLUC_R_SQUARED 0.2, read-out: LUCIFERASE INFECTION ASSAY - IC50): 3.75 µM
COc1cc(/C=C2/C(=O)Nc3cc(Cl)ccc32)c([N+](=O)[O-])cc1OC(F)F | 4.58 |  | IC50 (HEPG2TOX_HILL_SLOPE 4.03, HEPG2TOX_R_SQUARED 0.974, PBLUC_HILL_SLOPE 1.79, PBLUC_R_SQUARED 0.765, read-out: LUCIFERASE INFECTION ASSAY - IC50): 1.34 µM
OCc1ccccc1-c1cn2c(-c3ccc(Oc4ccccc4)cc3)cnc2cn1 | 8.14 | 0.646 | 
Cc1onc(-c2ccccc2)c1-c1csc(-c2ccc(Oc3ccc(C(F)(F)F)cn3)cc2)n1 | 2.83 |  | IC50 (HEPG2TOX_HILL_SLOPE 12.3, HEPG2TOX_R_SQUARED 0.647, PBLUC_HILL_SLOPE 12.5, PBLUC_R_SQUARED 0.454, read-out: LUCIFERASE INFECTION ASSAY - IC50): 2.37 µM

Structure (SMILES) | IC90 [µM] | IC50 [1] [µM] | also measured
NC(=O)N/N=C/c1ccc(Cl)cc1 | > 16.7 | > 16.7 | 
N#Cc1ccc(Cl)cc1/N=C/C(Br)=C/c1ccccc1 | > 10 | > 10 | 
O=C1CCCC2=Nc3ccc4ccccc4c3C(c3ccc(F)cc3F)C12 (centres undefined) | > 10 |  | IC50 (FFLUC_HILL_SLOPE 2.36, FFLUC_R_SQUARED 0.309, read-out: LUCIFERASE INFECTION ASSAY - IC50): > 10 µM
Cc1c(Cl)cc(NC(=O)Nc2ccccc2)c(O)c1Cl | > 10.6 |  | IC50 (PBLUC_HILL_SLOPE 11.8, PBLUC_R_SQUARED 0.519, read-out: LUCIFERASE INFECTION ASSAY - IC50): 9.83 µM
CCCCCCCCCCCCN1C(=O)CSC1c1cccnc1 (centres undefined) | > 9.47 | > 9.47 | 
COc1ccc(CN(Cc2n/c(=N\c3ccccc3C)nc(N)[nH]2)Cc2n/c(=N\c3ccccc3C)nc(N)[nH]2)cc1OC | 4.51 |  | IC50 (PBLUC_HILL_SLOPE 2.79, 12.2, PBLUC_R_SQUARED 0.127, 0.675, read-out: LUCIFERASE INFECTION ASSAY - IC50): 2.77 µM
Cc1ccc(-c2noc(CCCN3CCN(C(=O)Cn4cnc5c(C)cccc5c4=O)CC3)n2)cc1 | > 10 | > 10 | 
CC(=O)c1ccc(C#CCOC(=O)c2cccs2)s1 | > 11.4 |  | IC50 (PBLUC_HILL_SLOPE 2.26, PBLUC_R_SQUARED 0.405, read-out: LUCIFERASE INFECTION ASSAY - IC50): 5.72 µM
CC1=C(C(=O)OC(C)C)C(c2ccccc2)n2nc(-c3cccs3)nc2N1 (centres undefined) | > 10 |  | IC50 (HEPG2TOX_HILL_SLOPE 6.88, HEPG2TOX_R_SQUARED 0.357, read-out: LUCIFERASE INFECTION ASSAY - IC50): > 10 µM
COc1ccccc1NS(=O)(=O)c1ccc2nc(-c3ccncc3)[nH]c2c1 | > 10 | > 10 | 
COc1ccc(-c2cnc3sc(NCCc4ccncc4)nn23)cc1OC | 8.35 |  | IC50 (HEPG2TOX_HILL_SLOPE 4.06, HEPG2TOX_R_SQUARED 0.383, PBLUC_HILL_SLOPE 12.9, PBLUC_R_SQUARED 0.15, read-out: LUCIFERASE INFECTION ASSAY - IC50): 7.04 µM
Cc1nc(/C=C/C(=O)Nc2nc3ccccc3[nH]2)cs1 | 1.37 |  | IC50 (HEPG2TOX_HILL_SLOPE 0.99, HEPG2TOX_R_SQUARED 0.611, PBLUC_HILL_SLOPE 0.644, PBLUC_R_SQUARED 0.42, read-out: LUCIFERASE INFECTION ASSAY - IC50): 0.0451 µM
CCCCCC1C/C(=C\c2ccc(C(F)(F)F)cc2)C(=O)/C(=C/c2ccc(C(F)(F)F)cc2)C1 (centres undefined) | > 6.87 |  | IC50 (FFLUC_HILL_SLOPE 3.17, FFLUC_R_SQUARED 0.803, HEPG2TOX_HILL_SLOPE 11.8, HEPG2TOX_R_SQUARED 0.221, PBLUC_HILL_SLOPE 15.7, PBLUC_R_SQUARED 0.195, read-out: LUCIFERASE INFECTION ASSAY - IC50): 6.26 µM
CC(C)(C)c1cc(C(=O)NNC(=O)c2ccc(C(F)(F)F)cc2)n(Cc2ccccc2)n1 | > 7.42 | > 7.42 | 
COCC/N=c1\scc(-c2ccc(OC(F)F)cc2)n1/N=C/c1ccccc1Cl | > 10 | > 10 | 
CC(C)(NCC(=O)Nc1ccccc1C(N)=O)c1ccc2c(c1)OCO2 | > 10 |  | IC50 (PBLUC_HILL_SLOPE 7.96, PBLUC_R_SQUARED 0.17, read-out: LUCIFERASE INFECTION ASSAY - IC50): > 10 µM
COc1cc(C(=O)Nc2cccc(-c3nc4ccccc4[nH]3)c2)cc(Cl)c1OC | 8.28 |  | IC50 (HEPG2TOX_HILL_SLOPE 11, HEPG2TOX_R_SQUARED 0.706, PBLUC_HILL_SLOPE 2.74, PBLUC_R_SQUARED 0.344, read-out: LUCIFERASE INFECTION ASSAY - IC50): 3.71 µM
Cc1ccc(Nc2ncccc2C(=O)Nc2nc3ccccc3[nH]2)c(C)c1 | 7.9 |  | IC50 (HEPG2TOX_HILL_SLOPE 7.67, HEPG2TOX_R_SQUARED 0.775, PBLUC_HILL_SLOPE 5.03, PBLUC_R_SQUARED 0.402, read-out: LUCIFERASE INFECTION ASSAY - IC50): 5.1 µM
Cc1ccc(-n2ncc(Cl)c(Cl)c2=O)cc1 | > 12.9 |  | IC50 (FFLUC_HILL_SLOPE 14.5, FFLUC_R_SQUARED 0.489, HEPG2TOX_HILL_SLOPE 2.71, HEPG2TOX_R_SQUARED 0.789, PBLUC_HILL_SLOPE 3.3, PBLUC_R_SQUARED 0.431, read-out: LUCIFERASE INFECTION ASSAY - IC50): 8.02 µM
O=C1C=C/C(=N\Nc2ccccc2C(F)(F)F)c2cccnc21 | 1.31 |  | IC50 (HEPG2TOX_HILL_SLOPE 0.86, HEPG2TOX_R_SQUARED 0.964, PBLUC_HILL_SLOPE 13.8, PBLUC_R_SQUARED 0.7, read-out: LUCIFERASE INFECTION ASSAY - IC50): 1.12 µM
CNc1nc2cnc(Nc3ccc(OC(F)(F)F)cc3)cc2n1-c1cccc(C(F)(F)F)c1 | > 10 |  | IC50 (PBLUC_HILL_SLOPE 7.78, PBLUC_R_SQUARED 0.568, read-out: LUCIFERASE INFECTION ASSAY - IC50): 8 µM
